The text below walks through data of patent US20260285835A1, “SOLID FORM OF PYRROLIDONE DERIVATIVE AS GLUCOKINASE ACTIVATOR” (priority 2023, published 2026).

Like-named read-outs stand apart in the source and are kept apart here.

Series [1] is classed as physicochemical. The following applies: room temperature.
Series [2] in a line: Dynamic vapour sorption (DVS) test. It is filed as physicochemical. The following applies: 25° C. Here is the method: A dynamic vapour sorption (DVS) test was conducted on crystal form A of the free state and crystal form B of the hydrochloride.
A certain amount of powder was taken and put into a sample pan, and hygroscopicity of the sample was evaluated with DVS according to the following instrument method: […]

A short description of series [3]: Forced degradation stability test (heat, humidity and heat, light). It is filed as physicochemical. The settings on record: light box 10 days.
Procedure: About 10 mg of the sample powder was weighed and placed in a transparent vial, an amber vial, and a transparent vial sealed with aluminum foil, respectively. Those vials were placed in a light box for 10 days, with a total illumination of 1.2×10^6 Lux·hr and a near-UV energy not less than 200w·hr/m^2, for photostability evaluation.
The samples were taken at each time point for HPLC and XRPD analysis to evaluate the chemical and physical stability.
Series [4] can be described thus: High-temperature stability (60° C.) of free state crystal form A. It is filed as physicochemical.
Source text: (§1) The resulting sample was sampled at day 6, day 14 and day 34 for HPLC analysis.
A short description of series [5]: High-humidity stability (90% RH) of free state crystal form A. It is filed as physicochemical.
Source text: as §1
A short description of series [6]: Photostability (direct sunlight) of free state crystal form A. It is filed as physicochemical.
Source text: The resulting sample was sampled at day 4 and day 15 for HPLC analysis.
A short description of series [7]: Stability test in simulated gastric fluid (SGF). The following applies: 37° C. It is filed as in vitro ADME.
Procedure: 0.04 g of NaCl and 0.064 g of pepsin were dissolved in 0.14 mL of HCl, and water was added to bring the total volume to 20 mL. The pH of the test solution was about 1.20±0.05.
Then 200 μL of supernatant was pipetted and mixed completely again with 400 μL of cold acetonitrile containing 200 ng/mL tolbutamide (internal standard). 7) All samples were centrifuged at 4000 rpm, 4° C. for 20 min. • 8) 60 μL of supernatant was pipetted and mixed completely with 180 μL of ultra-pure water, and the mixture was subjected to LC-MS/MS analysis.
Series [8] can be described thus: Stability test in simulated intestinal fluid (SIF). It is filed as in vitro ADME. The following applies: 37° C.
Procedure: 0.136 g of KH2PO4 and 0.2 g of pancreatin were dissolved in water to obtain a final volume of 20 mL. The pH of the test solution was about 6.80±0.05.
Then 200 μL of supernatant was pipetted and mixed completely again with 400 μL of cold acetonitrile containing 200 ng/mL tolbutamide (internal standard). • 7) All samples were centrifuged at 4000 rpm, 4° C. for 20 min. • 8) 60 μL of supernatant was pipetted and mixed completely with 180 μL of ultra-pure water, and the mixture was subjected to LC-MS/MS analysis.
Series [9] can be described thus: Simulated metabolic test in human intestine S9. It is filed as in vitro ADME.
Procedure: 73.21 g of K2HPO4·3H2O (AR grade) and 10.78 g of KH2PO4 (AR grade) were dissolved in ultra-pure water to obtain a final volume of 4000 mL and a final concentration of 100 mM. The pH of the final test solution was adjusted to 7.40±0.10 with H3PO4/KOH.
An Apricot automation workstation was used to add 50 μL/well of HIS9 solution to the corresponding wells of all reaction plates (blank, T0, T5, T15, T30, T45, T60).
An Apricot automation workstation was used to add 48 μL/well of PB to the corresponding wells of every reaction plate (blank, T0, T5, T15, T30, T45, T60) to start the reaction.
The reaction plates were incubated at 37° C., and timer was started. An Apricot automation workstation was used to add 300 μL/well of stop solution (cold acetonitrile containing 200 ng/mL tolbutamide (internal standard)) to the corresponding wells of each reaction plate at the appropriate end time point to stop the reaction.
Each plate was sealed and shaken for 10 minutes. Each plate was centrifuged at 4000 rpm and 4° C. for 20 minutes. After centrifugation, 100 μL of supernatant was transferred from each reaction plate to the corresponding analysis plate, and mixed well with 300 μL of ultra-pure water.
Series [10] can be described thus: Caco-2 bi-directional permeability test. It is filed as in vitro ADME. The following applies: human; for metabolised at 2 h, 2 µM: Caco-2, pH 7.4, Compound A concentration 2.00 μM; for metabolised at 2 h, 10 µM: Caco-2, pH 7.4, Compound A concentration 10.0 μM; for metabolised at 2 h, 30 µM: Caco-2, pH 7.4, Compound A concentration 30.0 μM. In general terms: Caco-2 monolayers are a common model of the intestinal barrier.
Procedure: (§2) Caco-2 cell culture: Caco-2 cells (purchased from American Type Culture Collection, ATCC) were inoculated on polyethylene film (PET) of a 96-well culture plate at a concentration of 1×10^5 cells/cm^2. The culture medium was replaced every 4 days until cell confluency to form cell monolayer on day 21 or 28.
(§3) Transport test: Transport buffer used in the test was Hanks' Balanced Salt Solution (HBSS) containing 10 mM 2-[4-(2-hydroxyethyl)-1-piperazinyl]ethanesulfonic acid (HEPES) with a pH of 7.40±0.05. […] The final concentration of DMSO in the incubation system was adjusted to <1%.

The subject of the next series is Caco-2 cells. The series is described as follows: Caco-2 bi-directional permeability test. It is filed as in vitro ADME.
Series [11] is classed as in vivo. The following applies: rats.
Procedure: Each group was divided into 2 subgroups (intravenous bolus group (IV) and gavage group (PO)).
Whole blood samples (about 0.2 mL per time point) were collected at pre-dose (0), 0.083, 0.25, 0.5, 1, 2, 4, 8, 12, and 24 hours post-dose by jugular vein puncture. All the blood samples were immediately transferred into labeled pre-chilled commercial microcentrifuge tubes containing 4 μL of 0.5M K2-EDTA and 10 μL of cocktail stabilizer. Samples were placed on wet ice until centrifugation (within 30 min). Plasma samples were then prepared by centrifuging the blood samples at approximately 4° C., 3200×g for 10 minutes. Supernatant plasma was pipetted, then quickly frozen over dry ice, and then kept at −60° C. or lower temperature until LC-MS/MS analysis. The cocktail stabilizer was prepared according to the following Table 8:
The plasma concentrations were subjected to a non-compartmental pharmacokinetic analysis by using the WinNonlin™ software program (version 6.3).
The test system of another series is C57BL/6J mice. The series can be described thus: Pharmacodynamic study: OGTT blood glucose and insulin level in C57BL/6J mice. It is filed as in vivo. The settings on record: for Blood glucose level at 0 min (pre-glucose) vs vehicle control group: each administration group, 1 hour after administration, dose-response relationship. Here is the method:
There were 7 groups of mice, with 8 mice in each group. […] Oral glucose tolerance test (OGTT) was performed 1 hour after administration. The blood glucose level in mice was tested before administration (−60 min), before sugar administration (0 min), and at 15 min, 30 min, 60 min, and 120 min after sugar administration. In addition, 40 μl of blood was collected from the tail tip before sugar administration (0 min) and at 15 min after sugar administration to collect the plasma for an insulin level test.
All data was transferred into an Excel document. The blood glucose results were expressed in mg/dL and expressed as MEAN±SEM. Differences between multiple groups were analyzed using Dunnett's method in one-way analysis of variance (ANOVA) or two-way analysis of variance (ANOVA) with Graphpad Prism 8 software for comparison, and the differences were considered statistically significant when the P value was less than 0.05.

Where [12] appears, read: read-out: Average conversion rate to parent drug HMS5552 (%) A→B.
Where [13] appears, read: read-out: Average conversion rate to parent drug HMS5552 (%) B→A.
Setting [14] is: Compound A concentration 2.00 μM.
The mark [15] stands for this setting: Compound A concentration 10.0 μM, 120 min.
The mark [16] stands for this setting: Compound A concentration 30.0 μM, 120 min.

Procedure for Caco-2 cells: as §2, §3

For `CC(C)C[C@@H](C(=O)Nc1ccn(C[C@@H](O)COC(=O)c2cccnc2)n1)N1CC(Oc2ccccc2Cl)=CC1=O` [crystal form A of the free state, (R)-3-(3-((S)-2-(4-(2-chlorophenoxy)-2-oxo-2,5-dihydro-1H-pyrrol-1-yl)-4-methylpentanamido)-1H-pyrazol-1-yl)-2-hydroxypropyl nicotinate], the “Solubility (mg/mL)” value in series [1] (DMAc) was “S>40.0 mg/mL”; in series [1] (DMSO), “S>42.0 mg/mL”; in [1] (MeOH), “S>42.0 mg/mL”; in series [1] (NMP) it was “S>40.0 mg/mL”; in series [1] (n-Heptane), “S<1.1 mg/mL”. Besides, the results for the Moisture-induced weight gain entry in series [2] (relative humidity of 95%) and in [2] (relative humidity of less than or equal to 90%) were “less than 0.7%” and “less than 0.5%”, respectively. The “Crystalline form after forced degradation (XRPD)” value in [3] (50° C., 80° C., 40° C./75% RH (unsealed), 1 day, 2 weeks, 4 weeks) was “does not change”. For the same molecule, the “Effect of light on stability” value in [3] ([…]10^6 Lux·hr, near-UV not less than 200w·hr/m^2) was “no effect on the stability”. Further, the “Purity (Area %)” value is reported as 98.17 Area % in series [4] (0 h); 99.03 Area % in series [4] (60° C., Day 6, without cover); 99.11 Area % in series [4] (60° C., Day 14, without cover); 98.17 Area % in series [5] (0 hour); 98.99 Area % in series [5] (90% RH, Day 6, without cover); 99.09 Area % in series [5] (90% RH, Day 14, without cover). Besides, the “Purity (Area %)” value turned out to be 98.17 Area % in [6] (0 hour); 99.07 Area % in series [6] (direct sunlight, Day 4); 99.10 Area % in series [6] (direct sunlight, Day 15). Further, in series [4] (60° C. oven without cover), the “High-temperature stability (HPLC), conclusion” value is “still stable after being placed at 60 °C for 14 days”. The “High-humidity stability (HPLC), conclusion” value in series [5] (90% RH without cover) is reported as “still stable after being placed under the condition of 90% relative humidity for 14 days”. In [6] (direct sunlight), the “Photostability (HPLC), conclusion” value was “still stable after being placed under sunlight for 15 days”.

Turning to `CC(C)C[C@@H](C(=O)Nc1ccn(C[C@@H](O)COC(=O)c2cccnc2)n1)N1CC(Oc2ccccc2Cl)=CC1=O` [Compound A, (R)-3-(3-((S)-2-(4-(2-chlorophenoxy)-2-oxo-2,5-dihydro-1H-pyrrol-1-yl)-4-methylpentanamido)-1H-pyrazol-1-yl)-2-hydroxypropyl nicotinate], the “Parent drug HMS5552 (%)” value in series [7] (generation in SGF, 2 μM, 0 hr) is on record as 0.92%; in series [8] (generation in SIF, 2 μM, 0 hr) it was 0.86%; in series [9] (HIS9 0.5 mg/mL, 37° C., 0 min), 1.1%. The metabolised at 1 h, 2 µM in series [7] (simulated gastric fluid, pH 1.2, generation in SGF, 1 hr, read-out: Parent drug HMS5552 (%)) is 0.86%; in series [8] (simulated intestinal fluid, pH 6.8, generation in SIF, 1 hr, read-out: Parent drug HMS5552 (%)) it was 35.6%. Also, the metabolised at 2 h, 2 µM is 0.87% in [7] (simulated gastric fluid, pH 1.2, generation in SGF, 2 hr, read-out: Parent drug HMS5552 (%)); 46.6% in [8] (simulated intestinal fluid, pH 6.8, generation in SIF, 2 hr, read-out: Parent drug HMS5552 (%)); 26.5% in series [10] (setting [12]); 5.8% in [10] (setting [13]). The metabolised at 6 h, 2 µM was 1.02% in series [7] (simulated gastric fluid, pH 1.2, generation in SGF, 6 hr, read-out: Parent drug HMS5552 (%)) and 72.8% in [8] (simulated intestinal fluid, pH 6.8, generation in SIF, 6 hr, read-out: Parent drug HMS5552 (%)). For the same molecule, the metabolised at 24 h, 2 µM in series [7] (simulated gastric fluid, pH 1.2, generation in SGF, 24 hr, read-out: Parent drug HMS5552 (%)) is 1.63%; in series [8] (simulated intestinal fluid, pH 6.8, generation in SIF, 24 hr, read-out: Parent drug HMS5552 (%)), 73.4%. Further, in [9] (human intestine S9), the “Time to complete metabolism and conversion into parent drug HMS5552” value is no more than 5 min. For the same molecule, the metabolised at 5 min in series [9] (human, s9, pH 7.4, HIS9 0.5 mg/mL, 37° C., 5 min, read-out: Parent drug HMS5552 (%)) is 80%. In series [9] (human, s9, pH 7.4, HIS9 0.5 mg/mL, 37° C., 15 min, read-out: Parent drug HMS5552 (%)), the metabolised at 0.25 h was 77.2%. Besides, the metabolised at 0.5 h in series [9] (human, s9, pH 7.4, HIS9 0.5 mg/mL, 37° C., 30 min, read-out: Parent drug HMS5552 (%)) is 79.8%. In series [9] (human, s9, pH 7.4, HIS9 0.5 mg/mL, 37° C., 45 min, read-out: Parent drug HMS5552 (%)), the metabolised at 0.75 h is 81.2%. Besides, in series [9] (human, s9, pH 7.4, HIS9 0.5 mg/mL, 37° C., 60 min, read-out: Parent drug HMS5552 (%)), the metabolised at 1 h was 90.5%. Also, the metabolised at 2 h, 10 µM in [10] (setting [12]) is 37.4%; in series [10] (setting [13]), 5.6%. In addition, the figures for the metabolised at 2 h, 30 µM in series [10] (setting [12]) and in series [10] (setting [13]) were 26.8% and 3.4%, respectively. Moreover, the figures for the “Average recovery rate (%) A→B” value in the series with Caco-2 cells (setting [14]) and in the series with Caco-2 cells (setting [15]) were 52.9% and 37.5%, respectively. Further, the “Average recovery rate (%) B→A” value was found to be 87.1% in the series on Caco-2 cells (setting [14]), 81.6% in the series on Caco-2 cells (setting [15]) and 82.2% with Caco-2 cells (setting [16]). For the same molecule, the figures for the “The average apparent permeability Papp A→B” value in the series on Caco-2 cells (setting [14]), in the series on Caco-2 cells (setting [15]) and in the series with Caco-2 cells (setting [16]) were 0.02977 10^−6 cm/s, 0.03187 10^−6 cm/s and 0.04322 10^−6 cm/s, respectively. In addition, the “Metabolism after intravenous injection (in words)” value in series [11] is “metabolized very rapidly”. The “Insulin level at 15 min vs corresponding dose group of HMS5552” value in the series on C57BL/6J mice (oral 18.4 mg/kg) is listed as “significantly higher than that of the corresponding dose group of HMS5552”. In addition, the “Insulin level at 15 min vs vehicle control group” value in the series on C57BL/6J mice (oral 18.4 mg/kg) and in the series on C57BL/6J mice (oral 49.1 mg/kg) was “significantly higher than that of the vehicle control group” each time. Besides, the “OGTT blood glucose values vs vehicle control group” value in the series on C57BL/6J mice (oral 49.1 mg/kg, at 15 min, 30 min, 60 min and 120 min after glucose) is recorded as “significantly lower than that of the vehicle control group”. Further, the “OGTT blood glucose values vs HMS5552-40 mg/kg group” value with C57BL/6J mice (oral 49.1 mg/kg, at 30 min, 60 min and 120 min after glucose) is on record as “significantly lower than that of the HMS5552-40 mg/kg group”. Also, the “Blood glucose level at 0 min (pre-glucose) vs vehicle control group” value in the series on C57BL/6J mice (oral) was “generally lower than that of the vehicle control group”. In addition, in the series with C57BL/6J mice (oral, high-dose group), the “Insulin level at 0 min vs vehicle control group and HMS5552 high-dose group” value is “significantly higher than that of the vehicle control group and the HMS5552 high-dose group”. Besides, in the series on C57BL/6J mice (oral, medium and high dose groups), the “OGTT AUC0-120min vs corresponding dose groups of HMS5552” value is “significantly lower than those of the corresponding dose groups of HMS5552”.

On to `CC(C)C[C@@H](C(=O)Nc1ccn(C[C@@H](O)CO)n1)N1CC(Oc2ccccc2Cl)=CC1=O` [HMS5552, (S)-2-(4-(2-chlorophenoxy)-2-oxo-2,5-dihydro-1H-pyrrol-1-yl)-N-(1-((R)-2,3-dihydroxypropyl)-1H-pyrazol-3-yl)-4-methylpentanamide, reference compound], for which, in the series on C57BL/6J mice (oral 40 mg/kg, at 30 min, 60 min and 120 min after glucose), the “OGTT blood glucose values vs vehicle control group” value is recorded as “significantly lower than that of the vehicle control group”. For the same molecule, the “Blood glucose level at 0 min (pre-glucose) vs vehicle control group” value in the series on C57BL/6J mice (oral) is listed as “generally lower than that of the vehicle control group”. In addition, in the series on C57BL/6J mice (oral, each dose group), the “Insulin levels at 0 min and 15 min vs vehicle control group” value is on record as “slightly higher than those in the vehicle control group, without significant difference”.
